Source: ChEMBL document CHEMBL1124186, “Synthesis and evaluation of tylosin-related macrolides modified at the aldehyde function: a new series of orally effective antibiotics” (1988)
Converted amounts (≈) assume the structure as drawn.

Tests used:
[1] = In vitro antimicrobial activity against anaerobic bacteria peptostreptococcus intermedius 1264; type: functional
Enterococcus faecium = experiment: In vitro antimicrobial activity against Streptococcus faecium X66; type: functional, streptococcus fae-cium
[2] = tested on: Peptoniphilus asaccharolyticus; experiment: In vitro antimicrobial activity against anaerobic bacteria peptococcus asaccharolyticus 1302; type: functional
[3] = tested on: Fusobacterium necrophorum; experiment: In vitro antimicrobial activity against anaerobic bacteria usobacterium necrophorum 6054A; type: functional
[4] = tested on: Prevotella melaninogenica; experiment: In vitro antimicrobial activity against anaerobic bacteria bacteroides melaninogenicus 1856,; type: functional
Anaerococcus prevotii = experiment: In vitro antimicrobial activity against anaerobic bacteria peptococcus prevoti 1281; type: functional
Streptococcus pyogenes [5] = experiment: In vivo effective dose against experimental infections in rodent caused by Streptococcus pyogenes C203 when administered sc; type: functional
[6] = tested on: Peptostreptococcus anaerobius; experiment: In vitro antimicrobial activity against anaerobic bacteria eubacterium peptostreptococcus anaerobius 1428,; type: functional
Staphylococcus aureus = experiment: In vitro antimicrobial activity against Staphylococcus aureus X1; type: functional
[7] = tested on: Prevotella melaninogenica; experiment: In vitro antimicrobial activity against anaerobic bacteria bacteroides melaninogenicus 2736; type: functional
Phocaeicola vulgatus = experiment: In vitro antimicrobial activity against anaerobic bacteria bacteroides vulgatus 1211; type: functional
[8] = tested on: Bacteroides thetaiotaomicron; experiment: In vitro antimicrobial activity against anaerobic bacteria bacteroides thetaiotaomicron 1438; type: functional
Streptococcus pneumoniae = experiment: In vitro antimicrobial activity against Streptococcus pneumoniae; type: functional
Haemophilus influenzae = experiment: In vitro antimicrobial activity against Haemophilus influenzae.; type: functional
Chlamydia trachomatis = experiment: In vitro antimicrobial activity against chlamydia trachomatis.; type: functional
Clostridium perfringens = experiment: In vitro antimicrobial activity against anaerobic bacteria clostridium perfringens 81,; type: functional
Eikenella corrodens = experiment: In vitro antimicrobial activity against anaerobic bacteria bacteroides corrodens 1874; type: functional
Streptococcus pyogenes [9] = experiment: In vitro antimicrobial activity against Streptococcus pyogenes C203; type: functional
Streptococcus pyogenes [10] = experiment: In vivo effective dose against experimental infections in rodent caused by Streptococcus pyogenes C203 when administered orally; type: functional; conditions: po
Collinsella aerofaciens = experiment: In vitro antimicrobial activity against anaerobic bacteria aerofaciens 1235; type: functional
Fusobacterium = experiment: In vitro antimicrobial activity against anaerobic bacteria fusobacterium symbiosum 1470; type: functional
Cutibacterium acnes = experiment: In vitro antimicrobial activity against anaerobic bacteria propionibacterium acnes 79; type: functional
Bacteroides fragilis [11] = experiment: In vitro antimicrobial activity against anaerobic bacteria bacteroides fragilis 1877; type: functional
[12] = tested on: Staphylococcus epidermidis; experiment: In vitro antimicrobial activity against Staphylococcus epidermidis EPI1; type: functional
Bacteroides fragilis [13] = experiment: In vitro antimicrobial activity against anaerobic bacteria bacteroides fragilis 1936B,; type: functional
Bacteroides fragilis [14] = experiment: In vitro antimicrobial activity against anaerobic bacteria bacteroides fragilis 111; type: functional
Clostridioides difficile = experiment: In vitro antimicrobial activity against anaerobic bacteria Clostridium difficile 2994; type: functional

`CC[C@H]1OC(=O)C[C@@H](O)[C@H](C)[C@@H](O[C@@H]2O[C@H](C)[C@@H](O)[C@H](N(C)C)[C@H]2O)[C@@H](CCO)C[C@@H](C)C(=O)/C=C/C(C)=C/[C@@H]1CO` gave an MIC [1] of over 8 µg/mL, an MIC (Enterococcus faecium) of 64 µg/mL (≈ 107 µM) and an MIC [2] of over 8 µg/mL. It also gave an MIC [3] of 4 µg/mL (≈ 6.67 µM), an MIC [4] of over 8 µg/mL and an MIC (Anaerococcus prevotii) of over 8 µg/mL. It also gave an ED50 (Streptococcus pyogenes [5]) of over 10 mg/kg, an MIC [6] of over 8 µg/mL and an MIC (Staphylococcus aureus) of 64 µg/mL (≈ 107 µM). It also gave an MIC [7] of over 8 µg/mL, an MIC (Phocaeicola vulgatus) of over 8 µg/mL and an MIC [8] of over 8 µg/mL. The MIC (Streptococcus pneumoniae) was 64 µg/mL (≈ 107 µM), the MIC (Haemophilus influenzae) was 32 µg/mL (≈ 53.4 µM) and the MIC (Chlamydia trachomatis) was over 1 µg/mL. For the same compound, the MIC (Clostridium perfringens) was 4 µg/mL (≈ 6.67 µM), the MIC (Eikenella corrodens) was over 8 µg/mL and the MIC (Streptococcus pyogenes [9]) was 16 µg/mL (≈ 26.7 µM). For the same compound, the ED50 (Streptococcus pyogenes [10]) was over 100 mg/kg, the MIC (Collinsella aerofaciens) was 8 µg/mL (≈ 13.3 µM) and the MIC (Fusobacterium) was over 8 µg/mL. The MIC (Cutibacterium acnes) was 4 µg/mL (≈ 6.67 µM), the MIC (Bacteroides fragilis [11]) was over 8 µg/mL and the MIC [12] was 32 µg/mL (≈ 53.4 µM). The MIC (Bacteroides fragilis [13]) was over 8 µg/mL, the MIC (Bacteroides fragilis [14]) was over 8 µg/mL and the MIC (Clostridioides difficile) was 4 µg/mL (≈ 6.67 µM).
